Legend:
[1] = system: H5N1 influenza virus strain A/Egypt/M7217B/2013; assay: microbe, parasite or virus in culture; assay type: cell-based, influenza A virus (subtype H5N1); settings: for inhibition at 125 µM / inhibition at 250 µM: MDCK, read-out: inhibition % (plaque reduction assay)
[2] = system: Madin–Darby canine kidney (MDCK) cells; settings: dog

SMILES	viral count (plaque reduction assay) [1]	inhibition at 125 µM [1]	inhibition at 250 µM [1]	MTT assay LD50 [2]	therapeutic index (qualitative, plaque reduction assay) [1]	safety for healthy cells judged from LD50 values (NCI and GERAN protocol) [2]
CSC(NC(=O)c1ccccc1)=C(C#N)C#N [3a, N-(2,2-Dicyano-1-(methylthio)vinyl)benzamide]	5.0 × 10^6 4.0 × 10^6 PFU/mL	16.7%	33.3%	200 µmol/mL	–	–
CCSC(NC(=O)c1ccccc1)=C(C#N)C#N [3b, N-(2,2-Dicyano-1-(ethylthio)vinyl)benzamide]	2.2 × 10^6 9.0 × 10^5 PFU/mL	63.3%	85%	480 µmol/mL	higher therapeutic indices	safe for healthy cells
N#CC(C#N)=C(NC(=O)c1ccccc1)SCc1ccccc1 [3c, N-(1-(Benzylthio)-2,2-dicyanovinyl)benzamide]	2.8 × 10^6 2.1 × 10^6 PFU/mL	53.3%	65%	200 µmol/mL	–	–
N#Cc1nnc2c(C#N)c(NC(=O)c3ccccc3)nn2c1N [6a, N-(4-Amino-3,8-dicyanopyrazolo[5,1-c][1,2,4]triazin-7-yl)benzamide]	4.0 × 10^6 3.0 × 10^6 PFU/mL	33.3%	50%	200 µmol/mL	–	–
CCOc1c(C#N)nnc2c(C#N)c(NC(=O)c3ccccc3)nn12 [6b, N-(3,8-Dicyano-4-ethoxypyrazolo[5,1-c][1,2,4]triazin-7-yl)benzamide]	3.0 × 10^6 3.2 × 10^6 PFU/mL	50%	46.7%	100 µmol/mL	–	–
N#Cc1c(NC(=O)c2ccccc2)nn2c3c(cnc12)CCC3 [8a, N-(3-Cyano-7,8-dihydro-6H-cyclopenta[e]pyrazolo[1,5-a]pyrimidin-2-yl)benzamide]	4.0 × 10^6 2.5 × 10^6 PFU/mL	33.3%	58.3%	170 µmol/mL	–	–
N#Cc1c(NC(=O)c2ccccc2)nn2c3c(cnc12)CCCC3 [8b, N-(3-Cyano-6,7,8,9-tetrahydrocyclohexa[e]pyrazolo[1,5-a]pyrimidin-2-yl)benzamide]	–	–	–	210 µmol/mL	–	–
COc1ccc(-c2c(C#N)c(N)nc3c(C#N)c(NC(=O)c4ccccc4)nn23)cc1 [10b, N-(5-Amino-3,6-dicyano-7-(4-methoxyphenyl)pyrazolo[1,5-a]pyrimidin-2-yl)benzamide]	1.0 × 10^6 b PFU/mL	–	–	140 µmol/mL	higher therapeutic indices	–
N#Cc1c(N)nc2c(C#N)c(NC(=O)c3ccccc3)nn2c1-c1ccc(Cl)cc1 [10c, N-(5-Amino-7-(4-chlorophenyl)-3,6-dicyanopyrazolo[1,5-a]pyrimidin-2-yl)benzamide]	4.0 × 10^6 2.0 × 10^6 PFU/mL	33.3%	66.7%	120 µmol/mL	–	–
Cc1cc(C)n2nc(NC(=O)c3ccccc3)c(C#N)c2n1 [12a, N-(3-Cyano-5,7-dimethylpyrazolo[1,5-a]pyrimidin-2-yl)benzamide]	4.6 × 10^6 2.0 × 10^6 PFU/mL	23.3%	66.7%	210 µmol/mL	–	–
Cc1cc(O)n2nc(NC(=O)c3ccccc3)c(C#N)c2n1 [12b, N-(3-Cyano-7-hydroxy-5-methylpyrazolo[1,5-a]pyrimidin-2-yl)benzamide]	5.0 × 10^6 4.0 × 10^6 PFU/mL	16.7%	33.3%	190 µmol/mL	–	–
CC(=O)OC[C@H]1O[C@@H](SC(NC(=O)c2ccccc2)=C(C#N)C#N)[C@H](OC(C)=O)[C@H](OC(C)=O)[C@H]1OC(C)=O [21a, (2R,3S,4R,5R,6S)-2-(Acetoxymethyl)-6-((1-benzamido-2,2-dicyanovinyl)thio)tetrahydro-2H-pyran-3,4,5-triyl triacetate]	2.2 × 10^6 2.0 × 10^6 PFU/mL	63.3%	66.7%	90 µmol/mL	–	–
CCOC(=O)/C(C#N)=C(\NC(=O)c1ccccc1)S[C@@H]1O[C@H](COC(C)=O)[C@H](OC(C)=O)[C@@H](OC(C)=O)[C@H]1OC(C)=O [21b, (2R,3S,4R,5R,6S)-2-(Acetoxymethyl)-6-(((E)-1-benzamido-2-cyano-3-ethoxy-3-oxoprop-1-en-1-yl)thio)tetrahydro-2H-pyran-3,4,5-triyl triacetate]	3.5 × 10^6 2.0 × 10^6 PFU/mL	41.7%	66.7%	210 µmol/mL	–	–
N#Cc1c(NC(=O)c2ccccc2)n[nH]c1N [compound 4, N-(5-Amino-4-cyano-1H-pyrazol-3-yl)benzamide]	2.0 × 10^6 1.4 × 10^6 PFU/mL	66.7%	76.7%	30 µmol/mL	higher therapeutic indices	–
CCOC(=O)/C(C#N)=C(\NC(=O)c1ccccc1)SC [compound 14, (E)-Ethyl 3-benzamido-2-cyano-3-(methylthio)acrylate]	5.0 × 10^6 5.0 × 10^6 PFU/mL	16.7%	16.7%	130 µmol/mL	–	–
CCOc1n[nH]c(-c2ccccc2)n1 [compound 19, 3-Ethoxy-5-phenyl-1H-1,2,4-triazole]	2.2 × 10^6 2.0 × 10^6 PFU/mL	63.3%	66.7%	230 µmol/mL	–	–
CC(=O)N[C@H]1[C@H]([C@H](O)[C@H](O)CO)OC(C(=O)O)=C[C@@H]1N=C(N)N [zanamivir, reference compound]	5.0 × 10^4 1.1 × 10^4 PFU/mL	99.2%	99.8%	–	–	–

Reference: PMC7542596 (ACS Omega, 2020)
